Patent US20200172529A1, “Chemical Compound, Pharmaceutical Composition Thereof, and Use and Application Thereof” (Beijing Hanmi Pharm. Co., Ltd., priority 2017, published 2020)

Legend:
Format in all cases: biochemical
[1] = molecular target: T1, TYK2 kinase (Homo sapiens, UniProt P29597); test: Inhibition assay of TYK2 kinase activity (ADP-Glo Kinase Assay)
T1 construct: purchased Life Technologies PR8440C
Method in brief: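 Enzyme at 0.8 ng/mL (2-fold final) in 40 mM Tris-HCl pH 7.5, 20 mM MgCl2, 0.1 mg/mL BSA, 1 mM DTT, preincubated 10 min with compound (6 points, 10-fold dilutions from 10 μM). ATP plus polyE4Y1 then added for 60 min at room temperature. ADP-Glo luminescence read and IC50 derived.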

[2] = molecular target: JAK1 kinase (Homo sapiens, UniProt P23458); test: Inhibition assay of JAK1 kinase activity (ADP-Glo Kinase Assay)
Sequence of JAK1 kinase (P23458 whole entry): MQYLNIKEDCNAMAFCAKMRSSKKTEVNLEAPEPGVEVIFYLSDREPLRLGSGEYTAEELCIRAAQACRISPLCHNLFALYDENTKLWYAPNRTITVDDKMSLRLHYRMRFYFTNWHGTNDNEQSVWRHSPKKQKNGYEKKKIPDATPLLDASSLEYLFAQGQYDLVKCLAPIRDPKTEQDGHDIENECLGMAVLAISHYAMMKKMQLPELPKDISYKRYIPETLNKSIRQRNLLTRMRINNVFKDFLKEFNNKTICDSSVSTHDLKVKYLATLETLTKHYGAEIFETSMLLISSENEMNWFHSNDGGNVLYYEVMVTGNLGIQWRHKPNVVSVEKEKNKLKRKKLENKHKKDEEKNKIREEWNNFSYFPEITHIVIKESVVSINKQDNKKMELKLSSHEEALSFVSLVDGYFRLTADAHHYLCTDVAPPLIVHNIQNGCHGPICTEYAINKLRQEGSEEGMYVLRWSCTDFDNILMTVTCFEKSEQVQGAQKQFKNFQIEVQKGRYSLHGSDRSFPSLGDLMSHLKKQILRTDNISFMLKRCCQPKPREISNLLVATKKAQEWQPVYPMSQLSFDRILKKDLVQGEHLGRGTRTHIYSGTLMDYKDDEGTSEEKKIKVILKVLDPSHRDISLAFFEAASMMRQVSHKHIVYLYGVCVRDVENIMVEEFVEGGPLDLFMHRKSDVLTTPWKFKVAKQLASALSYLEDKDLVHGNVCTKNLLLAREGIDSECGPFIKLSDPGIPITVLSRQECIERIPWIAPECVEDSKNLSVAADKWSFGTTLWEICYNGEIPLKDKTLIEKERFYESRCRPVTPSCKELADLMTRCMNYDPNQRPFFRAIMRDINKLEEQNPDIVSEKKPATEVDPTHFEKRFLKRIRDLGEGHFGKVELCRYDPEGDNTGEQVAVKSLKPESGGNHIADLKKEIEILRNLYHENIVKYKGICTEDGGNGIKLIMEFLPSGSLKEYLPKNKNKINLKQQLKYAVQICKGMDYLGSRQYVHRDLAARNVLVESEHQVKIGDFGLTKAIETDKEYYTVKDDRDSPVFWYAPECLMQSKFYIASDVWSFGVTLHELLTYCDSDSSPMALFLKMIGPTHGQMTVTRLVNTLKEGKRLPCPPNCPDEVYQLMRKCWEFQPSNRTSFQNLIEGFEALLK
Source text: Inhibition assay of JAK1 kinase activity: the method in ADP-Glo™ Kinase Assay (Promega, V9102) was used to determine the inhibitory activity of the test compounds against JAK1 kinase.

[3] = molecular target: JAK2 kinase (Homo sapiens, UniProt O60674); test: Inhibition assay of JAK2 kinase activity (ADP-Glo Kinase Assay)
Sequence of JAK2 kinase (O60674 whole entry): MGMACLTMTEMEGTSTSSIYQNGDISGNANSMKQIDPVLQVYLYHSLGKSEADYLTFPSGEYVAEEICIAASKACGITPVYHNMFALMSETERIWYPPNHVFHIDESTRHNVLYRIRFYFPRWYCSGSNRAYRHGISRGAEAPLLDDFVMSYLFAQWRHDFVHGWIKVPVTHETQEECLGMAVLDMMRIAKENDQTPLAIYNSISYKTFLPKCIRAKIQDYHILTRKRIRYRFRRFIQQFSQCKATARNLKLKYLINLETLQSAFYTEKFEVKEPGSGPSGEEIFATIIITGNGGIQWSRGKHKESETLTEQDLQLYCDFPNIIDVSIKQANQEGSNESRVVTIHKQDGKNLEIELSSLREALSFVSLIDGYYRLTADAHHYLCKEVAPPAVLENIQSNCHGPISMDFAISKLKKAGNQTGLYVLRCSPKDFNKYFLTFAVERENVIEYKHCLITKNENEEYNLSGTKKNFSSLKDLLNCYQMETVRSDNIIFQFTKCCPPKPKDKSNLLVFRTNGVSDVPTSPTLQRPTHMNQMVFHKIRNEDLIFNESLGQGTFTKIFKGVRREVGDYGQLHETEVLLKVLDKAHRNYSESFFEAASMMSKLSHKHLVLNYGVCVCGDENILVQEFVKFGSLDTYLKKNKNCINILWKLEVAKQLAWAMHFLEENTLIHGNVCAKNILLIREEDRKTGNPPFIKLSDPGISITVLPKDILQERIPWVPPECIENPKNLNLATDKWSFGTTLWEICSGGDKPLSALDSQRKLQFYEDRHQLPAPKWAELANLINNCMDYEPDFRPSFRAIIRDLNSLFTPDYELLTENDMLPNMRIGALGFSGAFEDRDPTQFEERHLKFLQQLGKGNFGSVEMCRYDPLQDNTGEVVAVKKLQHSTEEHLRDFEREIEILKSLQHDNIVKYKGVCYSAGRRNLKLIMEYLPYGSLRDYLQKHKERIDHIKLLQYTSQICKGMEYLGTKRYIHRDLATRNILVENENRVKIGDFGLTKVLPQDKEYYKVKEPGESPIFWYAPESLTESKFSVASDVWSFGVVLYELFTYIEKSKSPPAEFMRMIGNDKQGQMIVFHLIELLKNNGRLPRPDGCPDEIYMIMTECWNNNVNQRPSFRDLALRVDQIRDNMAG
Source text: Inhibition assay of JAK2 kinase activity: the method in ADP-Glo™ Kinase Assay (Promega, V9102) was used to determine the inhibitory activity of the test compounds against JAK2 kinase.

[4] = molecular target: T2, JAK3 kinase (Homo sapiens, UniProt P52333); test: Inhibition assay of JAK3 kinase activity (ADP-Glo Kinase Assay)
T2 sequence (P52333 1-1124): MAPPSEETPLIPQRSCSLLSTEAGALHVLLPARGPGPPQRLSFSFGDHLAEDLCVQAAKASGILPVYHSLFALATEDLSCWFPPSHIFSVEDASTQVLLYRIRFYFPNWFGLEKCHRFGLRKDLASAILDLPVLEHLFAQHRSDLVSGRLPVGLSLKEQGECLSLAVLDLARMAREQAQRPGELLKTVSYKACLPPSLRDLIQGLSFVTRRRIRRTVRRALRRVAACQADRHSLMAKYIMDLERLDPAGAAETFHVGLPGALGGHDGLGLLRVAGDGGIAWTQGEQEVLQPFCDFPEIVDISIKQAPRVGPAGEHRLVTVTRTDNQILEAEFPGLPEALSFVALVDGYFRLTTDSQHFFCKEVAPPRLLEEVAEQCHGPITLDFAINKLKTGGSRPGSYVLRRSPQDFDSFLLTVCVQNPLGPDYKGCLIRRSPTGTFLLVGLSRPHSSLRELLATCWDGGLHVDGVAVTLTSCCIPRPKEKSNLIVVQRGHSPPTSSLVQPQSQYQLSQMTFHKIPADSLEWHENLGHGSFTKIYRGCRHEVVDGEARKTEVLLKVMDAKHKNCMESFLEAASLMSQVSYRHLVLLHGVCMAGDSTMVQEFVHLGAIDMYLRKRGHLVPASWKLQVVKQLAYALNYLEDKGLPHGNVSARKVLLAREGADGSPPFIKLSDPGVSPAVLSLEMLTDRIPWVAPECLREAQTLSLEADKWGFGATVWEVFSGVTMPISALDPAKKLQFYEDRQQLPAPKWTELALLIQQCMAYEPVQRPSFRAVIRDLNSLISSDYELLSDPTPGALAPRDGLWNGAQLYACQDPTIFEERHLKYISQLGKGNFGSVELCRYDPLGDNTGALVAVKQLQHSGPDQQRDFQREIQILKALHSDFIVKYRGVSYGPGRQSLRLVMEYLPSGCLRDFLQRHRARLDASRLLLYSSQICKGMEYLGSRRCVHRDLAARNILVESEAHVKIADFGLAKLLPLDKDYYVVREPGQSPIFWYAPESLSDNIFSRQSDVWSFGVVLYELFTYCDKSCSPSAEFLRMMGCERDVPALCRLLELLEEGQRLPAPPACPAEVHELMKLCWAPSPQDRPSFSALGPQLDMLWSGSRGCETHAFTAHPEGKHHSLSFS
Source text: Inhibition assay of JAK3 kinase activity: the method in ADP-Glo™ Kinase Assay (Promega, V9102) was used to determine the inhibitory activity of the test compounds against JAK3 kinase.

[5] = molecular target: SYK kinase (Homo sapiens, UniProt P43405); test: Inhibition assay of SYK kinase activity (ADP-Glo Kinase Assay)
Source text: Inhibition assay of SYK kinase activity: the method in ADP-Glo™ Kinase Assay (Promega, V9102) was used to determine the inhibitory activity of the test compounds against SYK kinase.

T1 sequence (P29597 whole entry): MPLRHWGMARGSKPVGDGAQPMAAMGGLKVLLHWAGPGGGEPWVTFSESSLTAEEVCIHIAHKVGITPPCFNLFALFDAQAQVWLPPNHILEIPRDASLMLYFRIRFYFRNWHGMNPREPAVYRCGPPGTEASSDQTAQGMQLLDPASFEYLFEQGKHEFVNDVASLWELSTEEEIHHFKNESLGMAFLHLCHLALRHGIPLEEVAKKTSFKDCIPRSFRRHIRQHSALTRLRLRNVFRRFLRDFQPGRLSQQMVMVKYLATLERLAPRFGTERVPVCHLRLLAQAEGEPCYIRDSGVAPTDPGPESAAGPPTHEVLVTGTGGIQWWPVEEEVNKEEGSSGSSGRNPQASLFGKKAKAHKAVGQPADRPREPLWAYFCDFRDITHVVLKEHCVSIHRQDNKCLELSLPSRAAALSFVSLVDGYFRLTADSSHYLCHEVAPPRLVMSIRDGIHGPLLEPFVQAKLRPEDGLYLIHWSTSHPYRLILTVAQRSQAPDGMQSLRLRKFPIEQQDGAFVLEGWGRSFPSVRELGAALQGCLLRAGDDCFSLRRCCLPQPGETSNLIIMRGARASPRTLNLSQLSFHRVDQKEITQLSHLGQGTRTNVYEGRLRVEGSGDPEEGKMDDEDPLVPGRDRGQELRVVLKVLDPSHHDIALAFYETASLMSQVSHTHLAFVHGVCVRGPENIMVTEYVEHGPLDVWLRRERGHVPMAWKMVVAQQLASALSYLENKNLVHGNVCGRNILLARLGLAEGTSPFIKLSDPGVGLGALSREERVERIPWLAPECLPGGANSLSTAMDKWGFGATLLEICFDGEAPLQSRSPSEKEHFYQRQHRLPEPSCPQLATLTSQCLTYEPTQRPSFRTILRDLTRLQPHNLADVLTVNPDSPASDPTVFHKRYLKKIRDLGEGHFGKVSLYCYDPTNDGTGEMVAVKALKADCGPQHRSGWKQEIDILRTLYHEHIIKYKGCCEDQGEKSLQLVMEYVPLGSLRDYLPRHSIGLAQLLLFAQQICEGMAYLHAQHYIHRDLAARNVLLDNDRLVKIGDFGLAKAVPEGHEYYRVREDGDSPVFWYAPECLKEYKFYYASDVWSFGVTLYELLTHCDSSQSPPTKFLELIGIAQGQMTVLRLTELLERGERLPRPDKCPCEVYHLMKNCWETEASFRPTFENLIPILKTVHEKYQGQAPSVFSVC

| Compound | IC50 [1] | IC50 [2] | IC50 [3] | IC50 [4] | IC50 [5] |
| --- | --- | --- | --- | --- | --- |
| NC(=O)c1cnc(Nc2ccc3c(c2)NC[C@H](O)CO3)nc1NC1CC1F (stereo partly drawn) [Example 57, 4-((2-fluorocyclopropyl)amino)-2-(((S)-2,3,4,5-tetrahydro-3-hydroxybenzo[b][1,4]oxazepin-7-yl)amino)pyrimidin-5-carboxamide] | < 10 nM | < 10 nM | 10 to 100 nM | 10 to 100 nM | 10 to 100 nM |
| COCCCCO[C@H]1CNc2cc(Nc3ncc(C(N)=O)c(NC4CC4)n3)ccc2OC1 [Example 100, 4-(cyclopropylamino)-2-(((S)-2,3,4,5-tetrahydro-3-(4-methoxybutoxy)benzo[b][1,4]oxazepin-7-yl)amino)pyrimidin-5-carboxamide] | < 10 nM | < 10 nM | – | – | 10 to 100 nM |
| CCOCCO[C@H]1CNc2cc(Nc3ncc(C(N)=O)c(NC4CC4)n3)ccc2OC1 [Example 95, 4-(cyclopropylamino)-2-(((S)-2,3,4,5-tetrahydro-3-(2-ethoxyethoxy)benzo[b][1,4]oxazepin-7-yl)amino)pyrimidin-5-carboxamide] | < 10 nM | < 10 nM | 10 to 100 nM | < 10 nM | 10 to 100 nM |
| CCO[C@H]1CNc2cc(Nc3ncc(C(N)=O)c(NC4CC4)n3)ccc2OC1 [Example 79, 4-(cyclopropylamino)-2-(((S)-2,3,4,5-tetrahydro-3-ethoxybenzo[b][1,4]oxazepin-7-yl)amino)pyrimidin-5-carboxamide] | < 10 nM | < 10 nM | 10 to 100 nM | 10 to 100 nM | 10 to 100 nM |
| COC1CNc2cc(Nc3ncc(C(N)=O)c(NC4CC4)n3)ccc2OC1 (stereo not drawn) [Example 24, 4-(cyclopropylamino)-2-((3-methoxy-2,3,4,5-tetrahydro-benzo[b][1,4]oxazepin-7-yl)amino)pyrimidin-5-carboxamide] | < 10 nM | 10 to 100 nM | 10 to 100 nM | 10 to 100 nM | 10 to 100 nM |
| NC(=O)c1cnc(Nc2ccc3c(c2)NC[C@H](OCCO)CO3)nc1NC1CC1 [Example 92, 4-(cyclopropylamino)-2-(((S)-2,3,4,5-tetrahydro-3-(2-hydroxyethoxy)benzo[b][1,4]oxazepin-7-yl)amino)pyrimidin-5-carboxamide] | < 10 nM | < 10 nM | < 10 nM | < 10 nM | 10 to 100 nM |
| [2H]C([2H])([2H])O[C@H]1CNc2cc(Nc3ncc(C(N)=O)c(NC4CC4)n3)ccc2OC1 [Example 87, 4-(cyclopropylamino)-2-(((S)-2,3,4,5-tetrahydro-3-(trideuteromethoxy)benzo[b][1,4]oxazepin-7-yl)amino)pyrimidin-5-carboxamide] | < 10 nM | < 10 nM | < 10 nM | 10 to 100 nM | 10 to 100 nM |
| CCCNc1nc(Nc2ccc3c(c2)NC[C@H](O)CO3)ncc1C(N)=O [Example 69, 4-(propylamino)-2-(((S)-2,3,4,5-tetrahydro-3-hydroxybenzo[b][1,4]oxazepin-7-yl)amino)pyrimidin-5-carboxamide] | < 10 nM | < 10 nM | 10 to 100 nM | 10 to 100 nM | 10 to 100 nM |
| CO[C@H]1CNc2cc(Nc3ncc(C(N)=O)c(NC4C5CC6CC4CC(O)(C6)C5)n3)ccc2OC1 (stereo partly drawn) [Example 90, 4-((5-hydroxyadamantan-2-yl)amino)-2-(((S)-2,3,4,5-tetrahydro-3-methoxybenzo[b][1,4]oxazepin-7-yl)amino)pyrimidin-5-carboxamide] | < 10 nM | – | < 10 nM | < 10 nM | 10 to 100 nM |
| CCOC(=O)CO[C@H]1CNc2cc(Nc3ncc(C(N)=O)c(NC4CC4)n3)ccc2OC1 [Example 91, 4-(cyclopropylamino)-2-(((S)-2,3,4,5-tetrahydro-3-ethoxycarbonylmethoxybenzo[b][1,4]oxazepin-7-yl)amino)pyrimidin-5-carboxamide] | < 10 nM | < 10 nM | 10 to 100 nM | 10 to 100 nM | 10 to 100 nM |
| NC(=O)c1cnc(Nc2ccc3c(c2)NCC(O)CO3)nc1NC1CCC1 (stereo not drawn) [Example 1, 4-(cyclobutylamino)-2-((3-hydroxy-2,3,4,5-tetrahydro-benzo[b][1,4]oxazepin-7-yl)amino)pyrimidin-5-carboxamide] | < 10 nM | < 10 nM | – | – | 10 to 100 nM |
| CCCCNc1nc(Nc2ccc3c(c2)NC[C@H](O)CO3)ncc1C(N)=O [Example 74, 4-(butylamino)-2-(((S)-2,3,4,5-tetrahydro-3-hydroxybenzo[b][1,4]oxazepin-7-yl)amino)pyrimidin-5-carboxamide] | < 10 nM | < 10 nM | < 10 nM | < 10 nM | – |
| NC(=O)c1cnc(Nc2ccc3c(c2)NC[C@H](O)CO3)nc1NCCN1CCOCC1 [Example 61, 4-((2-morpholinoethyl)amino)-2-(((S)-2,3,4,5-tetrahydro-3-hydroxybenzo[b][1,4]oxazepin-7-yl)amino)pyrimidin-5-carboxamide] | < 10 nM | 10 to 100 nM | 10 to 100 nM | 10 to 100 nM | – |

Further lines, results first:

| IC50 [1] | IC50 [2] | IC50 [3] | IC50 [4] | IC50 [5] | Compound |
| --- | --- | --- | --- | --- | --- |
| < 10 nM | 10 to 100 nM | < 10 nM | < 10 nM | 10 to 100 nM | NC(=O)c1cnc(Nc2ccc3c(c2)NC[C@@H](O)CO3)nc1NC1CC1 [Example 25, (R)-4-(cyclopropylamino)-2-((3-hydroxy-2,3,4,5-tetrahydro-benzo[b][1,4]oxazepin-7-yl)amino)pyrimidin-5-carboxamide] |
| < 10 nM | < 10 nM | < 10 nM | < 10 nM | 10 to 100 nM | C#CCCCNc1nc(Nc2ccc3c(c2)NC[C@H](O)CO3)ncc1C(N)=O [Example 72, 4-(pent-4-yn-1-ylamino)-2-(((S)-2,3,4,5-tetrahydro-3-hydroxybenzo[b][1,4]oxazepin-7-yl)amino)pyrimidin-5-carboxamide] |
| < 10 nM | < 10 nM | 10 to 100 nM | 10 to 100 nM | 10 to 100 nM | CC(C)OCCO[C@H]1CNc2cc(Nc3ncc(C(N)=O)c(NC4CC4)n3)ccc2OC1 [Example 96, 4-(cyclopropylamino)-2-(((S)-2,3,4,5-tetrahydro-3-(2-isopropoxyethoxy)benzo[b][1,4]oxazepin-7-yl)amino)pyrimidin-5-carboxamide] |
| < 10 nM | < 10 nM | – | – | 10 to 100 nM | NC(=O)c1cnc(Nc2ccc3c(c2)NC[C@H](OCC2CCCCO2)CO3)nc1NC1CC1 (stereo partly drawn) [Example 99, 4-(cyclopropylamino)-2-(((S)-2,3,4,5-tetrahydro-3-(tetrahydro-2H-2-pyranylmethoxy)benzo[b][1,4]oxazepin-7-yl)amino)pyrimidin-5-carboxamide] |
| < 10 nM | < 10 nM | < 10 nM | < 10 nM | – | CC(C)CNc1nc(Nc2ccc3c(c2)NC[C@H](O)CO3)ncc1C(N)=O [Example 70, 4-(isobutylamino)-2-(((S)-2,3,4,5-tetrahydro-3-hydroxybenzo[b][1,4]oxazepin-7-yl)amino)pyrimidin-5-carboxamide] |
| < 10 nM | < 10 nM | < 10 nM | < 10 nM | – | CC(Nc1nc(Nc2ccc3c(c2)NC[C@H](O)CO3)ncc1C(N)=O)C1CC1 (stereo partly drawn) [Example 55, 4-((1-cyclopropylethyl)amino)-2-(((S)-2,3,4,5-tetrahydro-3-hydroxybenzo[b][1,4]oxazepin-7-yl)amino)pyrimidin-5-carboxamide] |
